Measurements from BindingDB's records for doi:10.1021/jm030317k (Astrazeneca, 2004).
pIC50: −log10 of the molar value. Blank lines part the entries; values can stand above or below the molecule they belong to.

Columns and labels:
[1] = target: T1, Vascular endothelial growth factor receptor 2 (Homo sapiens, UniProt P35968); test: VEGF-R Kinase Inhibition Assay; conditions: 25 °C
Method: An ELISA assay was used to determine the ability of inhibitor to inhibit VEGF-RRTK activity. The compounds were incubated with enzyme 20 min at room temperature, with 2uM ATP in 96-well plates coated with a poly(Glu, Ala, Tyr) 6:3:1 random copolymer substrate. Phosphorylated tyrosine was then detected by sequential in cubation with anti-phosphotyrosine antibody. IC50 data were interpolated by nonlinear regression using Microcal Origin software.

[2] = target: Proto-oncogene tyrosine-protein kinase Src (Homo sapiens, UniProt P12931); test: In Vitro Src Kinase Inhibition Test; conditions: pH 7.4; 22 °C
From the text: (§1) This assay determines the ability of test compounds to inhibit Src kinase activity that catalyzes the transfer of the terminal phosphate to the immobilized poly (Glu,Tyr) substrate detected using anti-phosphotyrosine monoclonal antibody conjugated to alkaline phosphatase. IC50 values for compound enzyme inhibition were obtained using KC3 Kineticalc software (Bio-Tek Instruments) following subtraction of the blank values.

[3] = target: T1, Vascular endothelial growth factor receptor 2; test: In Vitro Src Kinase Inhibition Test
From the text: as §1

[4] = target: Vascular endothelial growth factor receptor 1 (Homo sapiens, UniProt P17948); test: In Vitro Src Kinase Inhibition Test
From the text: as §1

[5] = target: Fibroblast growth factor receptor 1 (Homo sapiens, UniProt P11362); test: In Vitro Src Kinase Inhibition Test
From the text: as §1

T1 sequence (P35968 whole entry): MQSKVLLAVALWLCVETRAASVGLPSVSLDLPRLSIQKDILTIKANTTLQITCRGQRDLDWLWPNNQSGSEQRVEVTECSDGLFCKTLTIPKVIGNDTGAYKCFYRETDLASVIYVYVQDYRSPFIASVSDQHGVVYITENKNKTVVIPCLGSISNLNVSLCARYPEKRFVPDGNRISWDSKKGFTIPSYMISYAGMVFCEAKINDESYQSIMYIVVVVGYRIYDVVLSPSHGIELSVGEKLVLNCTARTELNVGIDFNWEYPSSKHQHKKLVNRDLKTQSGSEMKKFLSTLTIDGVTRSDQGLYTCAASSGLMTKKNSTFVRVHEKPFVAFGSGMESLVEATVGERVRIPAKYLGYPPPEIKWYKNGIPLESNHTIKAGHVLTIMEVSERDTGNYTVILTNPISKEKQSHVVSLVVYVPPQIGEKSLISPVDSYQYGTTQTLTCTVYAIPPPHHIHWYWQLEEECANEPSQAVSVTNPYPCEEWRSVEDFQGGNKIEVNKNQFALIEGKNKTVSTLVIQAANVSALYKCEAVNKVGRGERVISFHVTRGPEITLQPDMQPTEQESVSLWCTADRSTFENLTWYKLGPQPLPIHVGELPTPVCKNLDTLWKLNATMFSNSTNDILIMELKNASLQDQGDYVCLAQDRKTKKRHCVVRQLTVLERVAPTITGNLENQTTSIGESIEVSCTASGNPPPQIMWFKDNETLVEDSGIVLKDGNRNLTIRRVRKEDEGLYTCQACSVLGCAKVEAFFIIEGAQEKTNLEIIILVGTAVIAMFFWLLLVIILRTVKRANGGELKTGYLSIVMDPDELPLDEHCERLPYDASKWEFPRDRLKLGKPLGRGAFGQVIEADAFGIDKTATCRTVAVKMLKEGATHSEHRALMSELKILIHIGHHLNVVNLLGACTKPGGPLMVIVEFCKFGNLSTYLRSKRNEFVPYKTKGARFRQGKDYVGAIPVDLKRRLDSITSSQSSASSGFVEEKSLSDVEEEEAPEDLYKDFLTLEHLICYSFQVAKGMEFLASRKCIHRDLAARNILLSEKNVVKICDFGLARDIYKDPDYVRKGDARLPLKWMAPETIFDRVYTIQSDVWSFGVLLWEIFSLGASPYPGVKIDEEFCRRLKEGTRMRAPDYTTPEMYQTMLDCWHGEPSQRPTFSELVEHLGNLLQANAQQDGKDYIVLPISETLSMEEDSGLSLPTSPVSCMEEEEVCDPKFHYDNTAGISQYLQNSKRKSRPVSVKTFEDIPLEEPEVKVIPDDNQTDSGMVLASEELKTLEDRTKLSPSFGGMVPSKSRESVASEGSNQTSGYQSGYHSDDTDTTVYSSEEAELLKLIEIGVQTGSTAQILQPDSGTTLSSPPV
Fibroblast growth factor receptor 1, sequence (P11362 whole entry): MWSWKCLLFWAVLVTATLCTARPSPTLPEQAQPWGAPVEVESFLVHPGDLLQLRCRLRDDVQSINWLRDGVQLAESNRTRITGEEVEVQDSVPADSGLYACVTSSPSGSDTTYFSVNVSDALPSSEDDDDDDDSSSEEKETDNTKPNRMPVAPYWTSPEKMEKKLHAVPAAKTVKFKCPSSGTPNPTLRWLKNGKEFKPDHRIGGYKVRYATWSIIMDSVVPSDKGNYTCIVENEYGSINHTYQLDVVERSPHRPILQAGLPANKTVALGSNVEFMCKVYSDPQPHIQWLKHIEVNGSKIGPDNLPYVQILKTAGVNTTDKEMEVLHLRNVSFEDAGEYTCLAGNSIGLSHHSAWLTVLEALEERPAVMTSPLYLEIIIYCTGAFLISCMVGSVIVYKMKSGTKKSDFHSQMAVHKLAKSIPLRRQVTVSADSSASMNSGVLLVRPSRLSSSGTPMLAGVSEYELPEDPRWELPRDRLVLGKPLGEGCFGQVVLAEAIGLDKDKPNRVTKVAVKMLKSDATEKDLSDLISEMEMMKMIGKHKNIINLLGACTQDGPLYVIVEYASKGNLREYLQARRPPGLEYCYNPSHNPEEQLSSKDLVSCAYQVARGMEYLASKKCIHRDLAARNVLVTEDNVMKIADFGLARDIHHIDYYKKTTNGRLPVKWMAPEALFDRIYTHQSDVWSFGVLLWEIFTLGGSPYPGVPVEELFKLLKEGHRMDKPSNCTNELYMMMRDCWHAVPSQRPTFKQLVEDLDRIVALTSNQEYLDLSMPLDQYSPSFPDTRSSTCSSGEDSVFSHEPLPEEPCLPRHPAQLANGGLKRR
Proto-oncogene tyrosine-protein kinase Src, sequence (P12931 2-536 limits assumed): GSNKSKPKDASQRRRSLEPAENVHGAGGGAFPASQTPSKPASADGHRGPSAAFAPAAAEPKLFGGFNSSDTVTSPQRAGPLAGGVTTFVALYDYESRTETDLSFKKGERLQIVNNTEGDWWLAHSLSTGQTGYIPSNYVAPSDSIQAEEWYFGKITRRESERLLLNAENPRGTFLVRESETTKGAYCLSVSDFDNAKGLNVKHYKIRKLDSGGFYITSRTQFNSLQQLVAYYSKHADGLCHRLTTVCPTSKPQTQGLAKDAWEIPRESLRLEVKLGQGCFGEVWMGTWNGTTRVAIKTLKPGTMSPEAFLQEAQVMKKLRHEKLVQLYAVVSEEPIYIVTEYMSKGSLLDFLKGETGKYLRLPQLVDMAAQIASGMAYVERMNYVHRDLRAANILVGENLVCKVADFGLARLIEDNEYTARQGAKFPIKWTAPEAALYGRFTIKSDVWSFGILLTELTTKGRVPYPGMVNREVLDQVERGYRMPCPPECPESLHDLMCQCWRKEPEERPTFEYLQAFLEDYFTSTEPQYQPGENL
Vascular endothelial growth factor receptor 1, sequence (P17948 whole entry): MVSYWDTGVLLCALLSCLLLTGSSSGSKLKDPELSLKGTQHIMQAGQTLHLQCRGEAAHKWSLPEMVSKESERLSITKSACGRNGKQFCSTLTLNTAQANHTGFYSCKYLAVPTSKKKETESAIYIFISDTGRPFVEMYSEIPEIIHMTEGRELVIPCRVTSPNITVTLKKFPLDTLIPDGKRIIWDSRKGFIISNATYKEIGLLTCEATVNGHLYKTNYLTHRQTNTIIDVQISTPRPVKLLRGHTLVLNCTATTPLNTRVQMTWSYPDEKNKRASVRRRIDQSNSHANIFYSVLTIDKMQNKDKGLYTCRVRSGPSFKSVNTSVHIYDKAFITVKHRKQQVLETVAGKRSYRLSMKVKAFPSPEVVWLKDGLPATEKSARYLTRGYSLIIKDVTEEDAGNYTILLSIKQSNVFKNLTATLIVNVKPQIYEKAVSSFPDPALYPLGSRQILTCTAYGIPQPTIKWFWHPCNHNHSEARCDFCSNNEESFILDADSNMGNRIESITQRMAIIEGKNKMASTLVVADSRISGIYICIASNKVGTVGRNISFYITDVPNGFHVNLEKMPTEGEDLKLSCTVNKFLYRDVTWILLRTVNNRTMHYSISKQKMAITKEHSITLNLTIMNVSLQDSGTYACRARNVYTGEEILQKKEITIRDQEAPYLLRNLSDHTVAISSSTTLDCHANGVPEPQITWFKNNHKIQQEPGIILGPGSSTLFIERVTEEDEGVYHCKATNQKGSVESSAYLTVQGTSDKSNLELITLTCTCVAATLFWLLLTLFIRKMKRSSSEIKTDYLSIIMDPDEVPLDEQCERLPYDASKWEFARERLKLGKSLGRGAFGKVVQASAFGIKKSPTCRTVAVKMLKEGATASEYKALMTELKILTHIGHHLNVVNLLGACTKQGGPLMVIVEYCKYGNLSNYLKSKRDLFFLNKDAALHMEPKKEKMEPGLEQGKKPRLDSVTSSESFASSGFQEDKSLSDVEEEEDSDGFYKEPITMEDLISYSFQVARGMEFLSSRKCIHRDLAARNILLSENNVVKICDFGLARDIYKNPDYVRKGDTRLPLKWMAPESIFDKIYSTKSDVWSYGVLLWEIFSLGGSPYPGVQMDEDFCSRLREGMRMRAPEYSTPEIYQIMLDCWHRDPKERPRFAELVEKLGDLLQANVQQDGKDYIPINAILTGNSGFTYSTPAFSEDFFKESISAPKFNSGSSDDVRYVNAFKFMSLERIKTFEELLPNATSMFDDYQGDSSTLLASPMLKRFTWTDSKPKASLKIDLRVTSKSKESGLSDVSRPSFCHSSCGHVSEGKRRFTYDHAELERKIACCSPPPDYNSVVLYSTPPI

pIC50 [1]: 6.17
pIC50 [2]: 8.00
Structure (SMILES): COc1ccc(Cl)c(Nc2ncnc3cc(OCC4CCN(C)CC4)c(OC)cc23)c1 [AZD0530 analogue 35]

pIC50 [3]: 4.66
Structure (SMILES): COc1cc2c(Nc3c(Cl)ccc4c3OCO4)ncnc2cc1OCCCN1CCCCC1 [BMCL182776 Compound 1]

pIC50 [4]: < 4.00
pIC50 [5]: < 4.00
Structure (SMILES): COc1cc2c(Nc3c(Cl)ccc4c3OCO4)ncnc2cc1OCc1ccnc(C#N)c1 [4-[({4-[(5-chloro-2H-1,3-benzodioxol-4-yl)amino]-6-methoxyquinazolin-7-yl}oxy)methyl]pyridine-2-carbonitrile]
